Measurements as given in EP4534147A1, “STING ANTAGONIST COMPOUNDS” (Sulis Therapeutics ApS, priority 2023, dated 2025).

What was measured:
STING = target: T1, STING (Homo sapiens, UniProt Q86WV6); assay: Human FB STING antagonist assay (IFN-a/b release); format: cell-based; settings: Human skin fibroblasts, 2h pre-treatment, 300 nM GSK STING agonist (CAS number: 2138299-34-8) for 20 h, release of IFN-a/b by HEK-Blue IFN-α/β bioassay
T1 construct: endogenous in cells; host or cells: human skin fibroblasts
T1 sequence (Q86WV6 whole entry): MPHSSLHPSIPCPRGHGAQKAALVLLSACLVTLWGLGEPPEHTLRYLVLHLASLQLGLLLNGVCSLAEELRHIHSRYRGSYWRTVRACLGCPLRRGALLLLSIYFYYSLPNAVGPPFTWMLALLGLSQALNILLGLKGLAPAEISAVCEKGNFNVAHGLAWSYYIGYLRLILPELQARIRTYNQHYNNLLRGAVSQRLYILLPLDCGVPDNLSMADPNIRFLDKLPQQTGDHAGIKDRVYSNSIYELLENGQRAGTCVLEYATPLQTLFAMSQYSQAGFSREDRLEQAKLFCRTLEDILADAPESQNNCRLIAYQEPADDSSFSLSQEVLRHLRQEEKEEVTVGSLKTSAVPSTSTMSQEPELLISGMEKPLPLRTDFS
Method: STING antagonist activity can be determined by a human fibroblast antagonist assay. For this, human skin fibroblasts are pre-treated for 2h with a serial dilution of the compound, and are then stimulated for 20 hours with 300 nM STING agonist (e.g. from GSK, CAS number: 2138299-34-8). Supernatants are then harvested and assessed for IFN-a/b release, which indicates STING activation. IFN-a/b concentration in the supernatant is determined, e.g. using an IFN-α/β bioassay. IC50 values are calculated using a non-linear regression fitting, variable slope (4 parameters).
Human skin fibroblasts were pre-treated for 2h with a serial dilution of test compound followed by stimulation with mock or 300 nM GSK STING agonist (CAS number: 2138299-34-8). Supernatants were harvested after 20 h of STING agonist stimulation. Release of IFN-a/b was determined using HEK-Blue IFN-α/β bioassay (Invivogen). Cellular viability was assessed using Alamar Blue HS assay. IC50 values were estimated using a non-linear regression fitting, variable slope (4 parameters) in GraphPad Prism 9.3.1.

[1] = target: T2, C-terminal domain (CTD) of human STING (Homo sapiens, UniProt Q86WV6); assay: STING binding FP assay I (fluorescence polarization competition binding); design: recombinant human STING protein (155-379); settings: recombinant human STING protein (155-379), 35 nM STING, 4 nM fluorescein-labelled STING ligand (Probe 1), 20 min at room temperature
Method: (§1) The interaction between molecules and the C-terminal domain (CTD) of human STING was evaluated using a competition binding assay. In this assay, recombinant human STING protein (155-379) and a STING binding fluorescent probe were employed. Upon binding of the probe to STING, the rotation of the fluorescent probe is slowed due to the larger molecular size of the protein-bound complex. As a result, emitted light retains its plane of polarization, leading to an increase in fluorescence polarization. Molecules competing for the probe binding site displace the probe, which leads to rapid randomization of the polarization plane of the emitted light and a subsequent decrease in measured fluorescence polarization signal. Change in polarization was measured, allowing a comparative evaluation of the binding affinities of different compounds to the target protein.
(§2) The assay was performed in 96-well plates (ThermoFisher, cat.# 237108) containing 100 µl : 10 µL test compound in 10% DMSO and buffer A (150 mM NaCl, 50 mM HEPES pH 7.5, 1 mM DTT) + 90 µL prepared master mix solution of: 4 nM fluorescein-labelled STING ligand (Probe 1; synthesis described above) in buffer A + 0.055% Tween-20 (v/v) and 35 nM STING in buffer A. Post mixing, plates were agitated at 600 rpm and incubated for 20 min at room temperature. Subsequent measurements of the fluorescence polarization signal were made on a BioTek Synergy-H1 plate reader, using a polarization filter; excitation: 485/20 nm, emission: 528/20 nm) with a gain-setting of 75. IC50 values were determined using a standard non-linear regression four-parameter curve fit in Graphpad Prism.
Target sequence in this assay (Q86WV6 155-379): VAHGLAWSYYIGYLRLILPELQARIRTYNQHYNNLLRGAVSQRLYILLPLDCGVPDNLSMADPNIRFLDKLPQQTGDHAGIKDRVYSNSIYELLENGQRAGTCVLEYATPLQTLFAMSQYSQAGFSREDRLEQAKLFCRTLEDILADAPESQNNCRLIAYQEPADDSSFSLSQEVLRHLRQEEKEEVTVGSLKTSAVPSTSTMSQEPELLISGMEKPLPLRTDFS

[2] = target: T2, C-terminal domain (CTD) of human STING; assay: STING binding TR-FRET assay (CisBio Human STING WT Binding Kit); design: purchased CisBio 64BDSTGPEG; settings: recombinant human STING with His-tag, D2-labeled active site probe, 60 min at room temperature
Method: STING binding can be determined by a time-resolved FRET assay. For instance, a STING protein having a His-tag can be used. A D2-labeled active site probe can be used to accept 620 nm emission from Anti-HIS-Tb-STING. Increased fluorescence is measured at 665 nm. Molecules that compete for the probe binding site will result in a lower 665 nm signal. The assay can be performed in low-volume white 96-well plates containing 5 µL compounds in an appropriate diluent buffer. Following 60 minutes incubation at room temperature in the dark, fluorescence emission at 665 nm is measured following 330 nm xenon flash excitation. pIC50 values can be determined using a standard four parameter curve fit.
The affinity of molecules to the C-terminal domain (CTD) of human STING was determined using a commercial Human STING WT Binding Kit (CisBio, cat.# 64BDSTGPEG). In this time-resolved FRET assay, a recombinant human STING protein construct with a His-tag was employed. When bound to STING, a D2-labeled active site probe accepts the 620 nm emission from Anti-HIS-Tb-STING and an increase in fluorescence is measured at 665 nm. Molecules that compete for the probe binding site will result in a low 665 nm signal. The assay was run in CisBio low-volume white 96-well plates (catalog# 66PL96005) containing 5 µL compounds in Diluent Buffer (supplied with the CisBio kit). A solution of 1xSTING, 1x Anti-HIS-Tb and 1X D2-probe in TB detection buffer (kit supplied) was added to the plate. Plates were centrifuged for 2 min at 500 rpm, incubated for 60 min at room temperature in the dark, and then fluorescence emission at 665 nm following 330 nm xenon flash excitation on an BioTek synergy H1 multimode reader (Agilent) was measured. The plC50 values were determined using a standard four parameter curve fit in GraphPad Prism.
Target sequence in this assay (Q86WV6 135-379 limits assumed): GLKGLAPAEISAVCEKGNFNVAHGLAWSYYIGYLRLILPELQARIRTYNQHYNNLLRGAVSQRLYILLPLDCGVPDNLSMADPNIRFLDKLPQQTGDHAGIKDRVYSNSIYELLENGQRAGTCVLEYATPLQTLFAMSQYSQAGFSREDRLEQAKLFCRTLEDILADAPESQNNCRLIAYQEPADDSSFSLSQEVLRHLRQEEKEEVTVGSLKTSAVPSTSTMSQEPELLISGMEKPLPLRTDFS

[3] = target: T2, C-terminal domain (CTD) of human STING; assay: STING binding FP assay II (as FP assay I, lower STING concentration); design: recombinant human STING protein (155-379); settings: 7 nM STING in buffer A, 4 nM fluorescein-labelled STING ligand (Probe 1)
Method: as §1, §2
Target sequence in this assay (Q86WV6 155-379): as the sequence (Q86WV6 155-379) above
The procedure for STING binding FP assay II is the same as described for STING binding FP assay I, except for a lower STING concentration. In STING binding FP assay II, a concentration of 7 nM STING in buffer A was used.

Structure (SMILES): CCOC(=O)COC(CCn1c(=NC(=O)c2cc(C)nn2CC)n(C)c2cc(C(N)=O)ccc21)CCn1c(=NC(=O)c2cc(C)nn2CC)n(C)c2cc(C(N)=O)ccc21 (stereo not drawn) [Example 2, Ethyl (3-{5-carbamoyl-2-[(1-ethyl-3-methyl-5-pyrazolyl)carbonylimino]-3-methyl-2,3-dihydro-1H-1,3-benzimidazol-1-yl}-1-(2-{5-carbamoyl-2-[(1-ethyl-3-methyl-5-pyrazolyl)carbonylimino]-3-methyl-2,3-dihydro-1H-1,3-benzimidazol-1-yl}ethyl)propoxy)acetate]
- IC50 (STING): 2500 nM
- IC50 [1]: < 30 nM

Structure (SMILES): CCn1nc(C)cc1C(=O)N=c1n(C)c2cc(C(N)=O)ccc2n1CCC(CCn1c(=NC(=O)c2cc(C)nn2CC)n(C)c2cc(C(N)=O)ccc21)OCC(=O)NC1CCN(C)CC1 (stereo not drawn) [Example 10, 1-{3-[(N-1-Methyl-4-piperidylcarbamoyl)methoxy]-5-{5-carbamoyl-2-[(1-ethyl-3-methyl-5-pyrazolyl)carbonylimino]-3-methyl-2,3-dihydro-1H-1,3-benzimidazol-1-yl}pentyl}-2-[(1-ethyl-3-methyl-5-pyrazolyl)carbonylimino]-3-methyl-2,3-dihydro-1H-1,3-benzimidazole-5-carboxamide]
- IC50 [2]: 0.869 nM
- IC50 [3]: 3.5 nM

Structure (SMILES): CCn1nc(C)cc1C(=O)N=c1n(C)c2cc(C(N)=O)ccc2n1CCC(CCn1c(=NC(=O)c2cc(C)nn2CC)n(C)c2cc(C(N)=O)ccc21)OCC(=O)N1CCC[C@H]1c1cccc(OC)c1 (stereo partly drawn) [Example 11, 1-(3-{2-[(S)-2-(3-Methoxyphenyl)-1-pyrrolidinyl]-2-oxoethoxy}-5-{5-carbamoyl-2-[(1-ethyl-3-methyl-5-pyrazolyl)carbonylimino]-3-methyl-2,3-dihydro-1H-1 ,3-benzimidazol-1-yl}pentyl)-2-[(1-ethyl-3-methyl-5-pyrazolyl)carbonylimino]-3-methyl-2,3-dihydro-1H-1,3-benzimidazole-5-carboxamide]
- IC50 (STING): 3400 nM
- IC50 [2]: 0.862 nM
- IC50 [3]: 2 nM

Structure (SMILES): CCn1nc(C)cc1C(=O)N=c1n(C)c2cc(C(N)=O)ccc2n1CCC(CCn1c(=NC(=O)c2cc(C)nn2CC)n(C)c2cc(C(N)=O)ccc21)OCC(=O)N(Cc1ccc(OC)cc1)C1CC1 (stereo not drawn) [Example 14, 1-[3-({N-Cyclopropyl[(p-methoxyphenyl)methyl]carbamoyl}methoxy)-5-{5-carbamoyl-2-[(1-ethyl-3-methyl-5-pyrazolyl)carbonylimino]-3-methyl-2,3-dihydro-1H-1,3-benzimidazol-1-yl}pentyl]-2-[(1-ethyl-3-methyl-5-pyrazolyl)carbonylimino]-3-methyl-2,3-dihydro-1H-1,3-benzimidazole-5-carboxamide]
- IC50 [2]: 0.659 nM

Structure (SMILES): CCn1nc(C)cc1C(=O)N=c1n(C)c2cc(C(N)=O)ccc2n1CCC(CCn1c(=NC(=O)c2cc(C)nn2CC)n(C)c2cc(C(N)=O)ccc21)OCC(=O)N1[C@H](C)COC[C@@H]1C (stereo partly drawn) [Example 17, 1-(3-{2-[(3R,5S)-3,5-Dimethyl-4-morpholinyl]-2-oxoethoxy}-5-{5-carbamoyl-2-[(1-ethyl-3-methyl-5-pyrazolyl)carbonylimino]-3-methyl-2,3-dihydro-1H-1,3-benzimidazol-1-yl}pentyl)-2-[(1-ethyl-3-methyl-5-pyrazolyl)carbonylimino]-3-methyl-2,3-dihydro-1H-1,3-benzimidazole-5-carboxamide]
- IC50 [2]: 0.54 nM

Structure (SMILES): CCn1nc(C)cc1C(=O)N=c1n(C)c2cc(C(N)=O)ccc2n1CCC(CCn1c(=NC(=O)c2cc(C)nn2CC)n(C)c2cc(C(N)=O)ccc21)OCC(=O)N(Cc1ccc(OC)cc1)Cc1ccccn1 (stereo not drawn) [Example 19, 1-(5-{5-Carbamoyl-2-[(1-ethyl-3-methyl-5-pyrazolyl)carbonylimino]-3-methyl-2,3-dihydro-1H-1,3-benzimidazol-1-yl}-3-({[(p-methoxyphenyl)methyl][(2-pyridyl)methyl]carbamoyl}methoxy)pentyl)-2-[(1-ethyl-3-methyl-5-pyrazolyl)carbonylimino]-3-methyl-2,3-dihydro-1H-1,3-benzimidazole-5-carboxamide]
- IC50 [2]: 1.11 nM

Structure (SMILES): CCn1nc(C)cc1C(=O)N=c1n(C)c2cc(C(N)=O)ccc2n1CCC(CCn1c(=NC(=O)c2cc(C)nn2CC)n(C)c2cc(C(N)=O)ccc21)OCC(=O)N1CCC[C@@H]1c1ccc(OC)cc1 (stereo partly drawn) [Example 20, 1-(3-{2-[(R)-2-(p-Methoxyphenyl)-1-pyrrolidinyl]-2-oxoethoxy}-5-{5-carbamoyl-2-[(1-ethyl-3-methyl-5-pyrazolyl)carbonylimino]-3-methyl-2,3-dihydro-1H-1,3-benzimidazol-1-yl}pentyl)-2-[(1-ethyl-3-methyl-5-pyrazolyl)carbonylimino]-3-methyl-2,3-dihydro-1H-1,3-benzimidazole-5-carboxamide]
- IC50 [2]: 0.95 nM

Structure (SMILES): CCNC(=O)COC(CCn1c(=NC(=O)c2cc(C)nn2CC)n(C)c2cc(C(N)=O)ccc21)CCn1c(=NC(=O)c2cc(C)nn2CC)n(C)c2cc(C(N)=O)ccc21 (stereo not drawn) [Example 29, 1-{3-[(N-Ethylcarbamoyl)methoxy]-5-{5-carbamoyl-2-[(1-ethyl-3-methyl-5-pyrazolyl)carbonylimino]-3-methyl-2,3-dihydro-1H-1,3-benzimidazol-1-yl}pentyl}-2-[(1-ethyl-3-methyl-5-pyrazolyl)carbonylimino]-3-methyl-2,3-dihydro-1H-1,3-benzimidazole-5-carboxamide]
- IC50 (STING): 5200 nM
- IC50 [3]: 7.1 nM

Structure (SMILES): CCn1nc(C)cc1C(=O)N=c1n(C)c2cc(C(N)=O)ccc2n1CCC(CCn1c(=NC(=O)c2cc(C)nn2CC)n(C)c2cc(C(N)=O)ccc21)OCC(=O)N1CCOC[C@@H]1c1ccccc1 (stereo partly drawn) [Example 30, 1-(3-{2-[(S)-3-Phenyl-4-morpholinyl]-2-oxoethoxy}-5-{5-carbamoyl-2-[(1-ethyl-3-methyl-5-pyrazolyl)carbonylimino]-3-methyl-2,3-dihydro-1H-1,3-benzimidazol-1-yl}pentyl)-2-[(1-ethyl-3-methyl-5-pyrazolyl)carbonylimino]-3-methyl-2,3-dihydro-1H-1,3-benzimidazole-5-carboxamide]
- IC50 (STING): 3600 nM
- IC50 [3]: 3.7 nM
